Source: patent US11680086B2, “Lipopeptide for potently inhibiting HIV, derivative thereof, pharmaceutical composition thereof and use thereof” (Institute of Pathogen Biology, Chinese Academy of Medical …, priority 2017, dated 2023)
pIC50: −log10 of the molar value. Like-named read-outs stand apart in the source and are kept apart here. Peptide text beside a SMILES is read from it. * marks the point of attachment. Palmitoyl = CCCCCCCCCCCCCCCC(=O)*

Columns and labels:
[1] = system: HIV-1 strain NL4-3 pseudovirus (D36G mutant); type: cell-based
Protocol: (§1) The supernatant was discarded from the wells. […] Inhibition rate (%) and IC50 value were calculated.

[2] = system: 35 HIV-1 pseudoviruses (subtypes A, B, B', C, G, A/C, A/E, B/C); conditions: for pIC50: read-out: average IC50 for inhibition of various types of HIV-1 pseudoviruses, average over 35 pseudoviruses
Text: HIV-1 pseudovirus-mediated cell entry inhibition assay: basic steps included: (1) Preparation of HIV-1 pseudovirus: the 293T cells were co-transfected with a plasmid expressing the envelope protein (Env) of HIV-1 strain NL4-3 (i.e., a recombinant expression plasmid obtained by inserting the gene encoding the envelope protein (ENV) of the D36G mutant of the HIV-1 strain NL4-3 in the Table 2 of the Reference 14 listed in the Background Art into the vector pcDNA3.1(−)) and the HIV-1 backbone plasmid pSG3Δenv (provided by the AIDS Reagent Program of National Institutes of Health (NIH), catalog number: 11051) by using a cell transfection reagent, incubated in a cell incubator of 37° C. and 5% CO2 for 6 hours, and then the medium was changed, and the cells were further incubated for 48 hours. The cell culture supernatant containing pseudovirus particles was pipetted and filtered with a 0.45 μm filter to collect the supernatant, then 20% fetal bovine serum (FBS) was added thereto, the final solution was transferred to a polypropylene tube, and stored at −80° C. for ready for use or directly subjected to virus titration. (2) Titration of HIV-1 pseudovirus: the viruses were diluted by 5 folds in a 96-well plate, and 4 replicate wells with 8 gradients were set to a final volume of 100 microliters. The TZM-b1 cells were trypsinized and counted, and the cells were diluted to 1×10^5 cells/ml with DMEM complete medium; 100 μl of cells dilution (containing 15 μg/ml DEAE-dextran) per well were added and cultured at 37° C. and 5% CO2 for 48 hours. The 96-well plate was then taken from the cell culture incubator. The supernatant was discarded from the wells. To each well, 30 μl of a cell lysate was added, and after 10 minutes, 100 μl of a luciferase detection reagent was added. 100 μl of liquid was pipetted from each well and added to a corresponding 96-well white plate, and the luminescence values were read by a microplate photometer. The virus titer was calculated by the Reed-Muench method. (3) Antiviral activity assay: the test substance was dissolved in DMSO and diluted with a cell culture solution by 3 folds, and placed in a 96-well plate at a final volume of […]. 50 μl of a DMEM medium was used in place of the test substance as a negative control. To each well, 100 μl of TZM-b1 target cells solution (containing 15 μg/ml DEAE-dextran) at a concentration of 1×10^5 cells/ml was added, and then 50 μl (corresponding to 100 TCID50 per well) of the HIV-1 pseudovirus obtained above was added. After incubation at 37° C. and 5% CO2 for 48 hours, the relative light units (RLU) of each well were determined by using a luciferase detection reagent (Promega). Inhibition rate (%) and IC50 value were calculated.
Among them, the A, B and C subtypes were the main viruses causing AIDS epidemic in the world, while B/C and A/E recombinant viruses were the main viruses in China. […] Among the Env expression plasmids used for the preparation of pseudoviral, except that the Env expression plasmids used for preparation of PVO, Du156 and CAP 210.2.00.E8 were obtained from the AIDS Reagent Program of NIH in the United states, other plasmids were preserved by the laboratory of Prof. He Yuxian, Institute of Pathogen Biology, Chinese Academy of Medical Sciences, please see the References 13, 14 and 18 listed in the Background Art and articles of Chong et al. (Chong H, Yao X, Zhang C, Cai L, Cui S, Wang Y, He Y. Biophysical property and broad anti-HIV activity of Albuvirtide, a 3-maleimimidoproprotionic acid-modified peptide fusion inhibitor. PLoS One, 2012; 7 (3): e 32599). The preparation of the pseudovirus and the antiviral assay were the same as those in Example 2.1 of Example 2 (HIV-1 pseudovirus-mediated cell entry inhibition assay).

NL4-3WT pseudovirus = conditions: wild type NL4-3WT
Text: HIV-1 pseudovirus-mediated cell entry inhibition assay: basic steps included: (1) Preparation of HIV-1 pseudovirus: the 293T cells were co-transfected with a plasmid expressing the envelope protein (Env) of HIV-1 strain NL4-3 (i.e., a recombinant expression plasmid obtained by inserting the gene encoding the envelope protein (ENV) of the D36G mutant of the HIV-1 strain NL4-3 in the Table 2 of the Reference 14 listed in the Background Art into the vector pcDNA3.1(−)) and the HIV-1 backbone plasmid pSG3Δenv (provided by the AIDS Reagent Program of National Institutes of Health (NIH), catalog number: 11051) by using a cell transfection reagent, incubated in a cell incubator of 37° C. and 5% CO2 for 6 hours, and then the medium was changed, and the cells were further incubated for 48 hours. The cell culture supernatant containing pseudovirus particles was pipetted and filtered with a 0.45 μm filter to collect the supernatant, then 20% fetal bovine serum (FBS) was added thereto, the final solution was transferred to a polypropylene tube, and stored at −80° C. for ready for use or directly subjected to virus titration. […] The TZM-b1 cells were trypsinized and counted, and the cells were diluted to 1×10^5 cells/ml with DMEM complete medium; 100 μl of cells dilution (containing 15 μg/ml DEAE-dextran) per well were added and cultured at 37° C. and 5% CO2 for 48 hours. […]

[3] = system: NL4-3 pseudovirus carrying T-20 resistance mutation site of NHR; test: inhibition of T-20 resistant strains; type: cell-based, HIV-1; conditions: strains with single or double mutations
[4] = system: HIV-2 strain ROD (infectious); test: inhibition of HIV-2; type: cell-based; conditions: HIV-2 ROD
Protocol: (§2) Inhibition rate (%) and IC50 value were calculated.
(§3) In order to further reflect the antiviral advantages of the potent lipopeptides of the present invention, their inhibitory activity against HIV-2 and SIV was determined in the example. The methods of antiviral activity assays used were described in the literatures published by the present inventors (see the References 13 and 30 listed in the Background Art). The molecular cloning plasmid pROD of the HIV-2 strain ROD (HIV-2ROD) was kindly provided by Professor Nuno Taveira from the University of Lisbon, Portugal, and the plasmids expressing the SIV strain SIVpbj (SIVPBJ) and SIV239 envelope proteins (pSIVpbj-Env and pSIV239, respectively) were kindly provided by Professor Xu Jianqing from the Fudan University. The preparation of the infectious ROD was the same as that of the infectious JRCSF in the above section 2.1, and the pseudoviruses SIVpbj and SIV239 were prepared by a method same as that described in the above Examples 2 and 3.

[5] = system: SIV pseudoviruses SIVpbj and SIV239; test: inhibition of SIV pseudoviruses; type: cell-based
Protocol: as §1, §3

[6] = system: HIV-1 strain NL4-3 (NL4-3D36G); test: antiviral activity in serum of macaque after subcutaneous injection; type: in vivo, macaques (rhesus monkeys); conditions: 3 mg/kg subcutaneous
Protocol: The specific method was as follows: 6 experimental macaques (rhesus monkeys) were selected, half male and half female, aged 3-4 years old, weighing 3.4-4.7 kg. […] The serum was separated according to a conventional method. The injection interval of each inhibitor was more than 2 weeks to ensure that there was no residue of the previous analyte. The serum activity against the HIV-1 strain NL4-3 (NL4-3D36G) was measured according to the experimental method of the pseudovirus-based assay in the above examples. The serum was diluted by 3 folds. […] Therefore, the lipopeptides of the present invention were not only potent but also were long-lasting effective.

[7] = biological target: N39 (NHR-derived polypeptide of gp41) (Human immunodeficiency virus type 1 group M subtype B, UniProt P04578); type: binding, HIV-1; conditions: 10 μM each, PBS pH 7.2
N39 (NHR-derived polypeptide of gp41), sequence (P04578 528-566): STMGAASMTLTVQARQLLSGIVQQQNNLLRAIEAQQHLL
Protocol: (§4) The circular dichroism spectrophotometer was Jasco-815 by JASCO Inc., and the assay method was referred to the papers published by the inventors (see the References 18 and 30 listed in the Background Art). […] The N39 and an inhibitor were separately dissolved in a phosphate buffered saline (PBS) to prepare a PBS solution (pH 7.2) of a concentration of 20 μM. The N39 was mixed with an inhibitor at a volume ratio of 1:1 (final concentration of 10 μM for each), the mixed sample was placed at 37° C. for 30 minutes to fully react, and then the helix content and Tm value of the resultant complex were measured by the circular dichroism spectrophotometer. The scan wavelength range of the device was 195-260 nm with a wavelength interval of 1 nm, and the values measured by scanning for three times were averaged. Based on the CD signals, the interaction between the polypeptides and the helix content were determined. Then, the sample for CD signal measurement was transferred to the temperature scanning sample cell, the program of the CD device was set to temperature scanning with a detection wavelength of 220 nm and scanning range of 20-98° C., and the program scan was performed to obtain the curve of the CD signals vs temperature, based on which the Tm value was calculated. Based on the Tm value, the stability of the formed helical structure of the inhibitor and N39 was judged.

[8] = circular dichroism secondary structure analysis of the inhibitors themselves; type: physicochemical; conditions: 10 μM, 20 μM and 40 μM in PBS
Protocol: as §4
For easy analysis, the α-helix content and the Tm value of the inhibitors were measured at concentrations of 10 μM, 20 μM, and 40 μM (PBS solution), respectively.

[9] = system: HXB2-mediated cell fusion (HL2/3 effector cells, TZM-b1 target cells); type: cell-based, HIV-1
Protocol: HIV-1 mediated cell fusion inhibition assay: the effector cells (HL2/3 cells) and target cells (TZM-b1 cells) were provided by the AIDS Reagent Program of National Institutes of Health (NIH) (catalog numbers: 1294 and 8129, respectively). The both cells were adherent cells and were cultured in a DMEM cell culture medium containing ampicillin/streptomycin double antibiotics and 10% fetal bovine serum (FBS). The TZM-b1 was first added to a 96-well cell culture plate (1×10^4 cells/well), and cultured overnight at 37° C. and 5% CO2. The test substance was diluted with the DMEM cell culture medium by 3 folds and mixed with HL2/3 effector cells (3×10^4 cells/well), then added to the TZM-b1 target cells, and further cultured for 6 hours to fully fuse. The activity of luciferase (relative fluorescence units, RLU) was then determined using a luciferase reporter gene kit from Promega company according to the instructions. The inhibition rate of each sample at each concentration was calculated, and the half effective inhibitory concentration (IC50 value) was calculated using GraphPad Prism Software 2.01.

HIV-1 strain JRCSF = type: cell-based
Protocol: as §2

## enfuvirtide
[1]; NL4-3D36G mutant, Example 4, read-out: IC50
  pIC50: 7.86
[2]
  pIC50: 7.38
NL4-3WT pseudovirus
  pIC50: 6.82
[3]
  inhibitory activity against T-20 resistant strains (in words): significantly increased by several folds
[4]
  inhibitory activity against HIV-2 (in words): extremely weak
[5]
  inhibitory activity against SIV (in words): extremely weak
[6]; 2 hour after injection
  maximum serum dilution multiple for inhibiting 50% of NL4-3 infectivity: 45 folds
[6]; 4 hour after injection
  maximum serum dilution multiple for inhibiting 50% of NL4-3 infectivity: 46 folds
[7]
  helix content of the complex with N39: 48.6%
[8]
  secondary structure of the inhibitor itself (in words): irregular disorder structure

## CCCCCCCCCCCCCCCC(=O)NCCCC[C@H](NC(=O)[C@H](CCC(=O)O)NC(=O)[C@H](CC(C)C)NC(=O)[C@H](CCCCN)NC(=O)[C@H](CCCCN)NC(=O)[C@H](CC(C)C)NC(=O)[C@H](CCC(=O)O)NC(=O)[C@H](CCC(=O)O)NC(=O)[C@H](CCC(=O)O)NC(=O)[C@H](CC(N)=O)NC(=O)[C@H](CCCCN)NC(=O)[C@H](CCCCN)NC(=O)[C@H](CCC(N)=O)NC(=O)[C@H](CCC(N)=O)NC(=O)[C@H](CCC(=O)O)NC(=O)[C@H](CCC(=O)O)NC(=O)[C@H](CO)NC(=O)[C@H](CCCCN)NC(=O)[C@H](CCCCN)NC(=O)[C@@H](NC(=O)[C@H](CC(C)C)NC(=O)[C@H](CCC(=O)O)NC(=O)[C@H](CCC(=O)O)NC(=O)[C@@H](NC(=O)[C@H](CC(C)C)NC(=O)[C@H](CO)NC(=O)[C@@H](NC(=O)[C@H](Cc1ccc(O)cc1)NC(C)=O)[C@@H](C)O)[C@@H](C)CC)[C@@H](C)CC)C(N)=O [LP-50] (Ac-YTSLIEELIKKSEEQQKKNEEELKKLEK(Palmitoyl)-NH2)
[9]; HXB2-cell fusion, read-out: IC50 for inhibiting cell fusion
  pIC50: 10.68
[9]; HXB2-mediated cell fusion, relative to T-20
  inhibitory activity as folds of that of T-20: 1151 folds
[9]; cell fusion, relative to LP-40
  inhibitory activity as folds of that of LP-40: 20 folds
[1]; Entry of NL4-3 (D36G), read-out: IC50 for inhibiting pseudovirus
  pIC50: 11.15
[1]; NL4-3 pseudovirus entry, relative to T-20
  inhibitory activity as folds of that of T-20: 1345 folds
[1]; pseudovirus, relative to LP-40
  inhibitory activity as folds of that of LP-40: 63 folds
HIV-1 strain JRCSF; JRCSF replication, relative to T-20
  inhibitory activity as folds of that of T-20: 226 folds
HIV-1 strain JRCSF; Replication of JRCSF, read-out: IC50 for inhibiting replicative virus
  pIC50: 10.64
HIV-1 strain JRCSF; replicative virus, relative to LP-40
  inhibitory activity as folds of that of LP-40: 12 folds
[2]
  pIC50: 10.39
[2]; relative to T-20, from average IC50
  inhibitory activity against different subtypes of HIV-1 as folds of T-20: 1010 folds
[3]
  inhibitory activity against T-20 resistant strains (in words): further improved by hundreds or even thousands of folds
[4]
  inhibitory activity against HIV-2 (in words): extremely potent inhibitory activity
[5]
  inhibitory activity against SIV (in words): extremely potent inhibitory activity
[7]
  Tm value of the complex with N39: 63.3 °C
[8]
  secondary structure of the inhibitor itself (in words): distinct helical structure
